Assay: Stability of NCA under different storage conditions
Type: physicochemical
Design: key: a “−” symbol means the monomer was found already polymerized/degraded; “+” means monomer was found to be stable
Description: Absence of HCl in the purified NCAs was confirmed by means of a silver nitrate solution. The presence of HCl can be identified by the precipitation of silver chloride when some drops of a solution 1M of AgNO3 are added to a solution of the monomer. The purity of the NCA is the main criteria to ensure long term storage. This issue was corroborated with stability studies of the NCA under different storage conditions.

O=C(CCC1NC(=O)OC1=O)OCc1ccccc1 (centres unmarked) [NCA, Benzyl 3-(2,5-dioxooxazol-4-il)propanoate]
Stability of NCA on storage (4° C., 5 d): +
Stability of NCA on storage (4° C., 6 d): +
Stability of NCA on storage (4° C., 8d): −
Stability of NCA on storage (4° C., 10 d): −
Stability of NCA on storage (4° C., 11 d): −
Stability of NCA on storage (4° C., 20 d): −
Stability of NCA on storage (4° C., 50 d): −
Stability of NCA on storage (4° C./Ar, 5 d): +
Stability of NCA on storage (4° C./Ar, 6 d): +
Stability of NCA on storage (4° C./Ar, 7 d): +
Stability of NCA on storage (4° C./Ar, 8d): +
Stability of NCA on storage (4° C./Ar, 10 d): +
Stability of NCA on storage (4° C./Ar, 11 d): +
Stability of NCA on storage (R.T, 5 d): −
Stability of NCA on storage (R.T, 6 d): −
Stability of NCA on storage (R.T, 7 d): −
Stability of NCA on storage (R.T, 8d): −
Stability of NCA on storage (R.T, 10 d): −
Stability of NCA on storage (R.T, 11 d): −
Stability of NCA on storage (R.T, 20 d): −
Stability of NCA on storage (R.T, 50 d): −
Stability of NCA on storage (R.T/Ar, 6 d): −
Stability of NCA on storage (R.T/Ar, 7 d): −
Stability of NCA on storage (R.T/Ar, 8d): −
Stability of NCA on storage (R.T/Ar, 10 d): −
Stability of NCA on storage (R.T/Ar, 11 d): −
Stability of NCA on storage (R.T/Ar, 20 d): −
Stability of NCA on storage (R.T/Ar, 50 d): −
Stability of NCA on storage (−23° C., 5 d): +
Stability of NCA on storage (−23° C., 6 d): +
Stability of NCA on storage (−23° C., 7 d): +
Stability of NCA on storage (−23° C., 8d): +
Stability of NCA on storage (−23° C., 10 d): +
Stability of NCA on storage (−23° C., 11 d): +
Stability of NCA on storage (−23° C., 20 d): +
Stability of NCA on storage (−23° C., 50 d): +
Stability of NCA on storage (−23° C./Ar, 5 d): +
Stability of NCA on storage (−23° C./Ar, 6 d): +
Stability of NCA on storage (−23° C./Ar, 7 d): +
Stability of NCA on storage (−23° C./Ar, 8d): +
Stability of NCA on storage (−23° C./Ar, 10 d): +
Stability of NCA on storage (−23° C./Ar, 11 d): +
Stability of NCA on storage (−23° C./Ar, 20 d): +
Stability of NCA on storage (−23° C./Ar, 50 d): +

Reference: patent publication US9623125B2, “Controlled synthesis of polyglutamates with low polydispersity and versatile architectures” (Fundacion de la Comunidad Valenciana “Centro De …, priority 2011, dated 2017)
